For test [1], the target named is Cyclin-dependent kinase 7 (Homo sapiens, UniProt P50613). The settings on record: at 10 µM.
For test [2], the target named is Tyrosine-protein kinase Fer (Homo sapiens) (UniProt P16591). As to the kind of experiment: Selectivity interaction (KinomeScan (DiscoverX)) EUB0000666a FER. The note with it: at 10 µM.
Test [3] concerns the target Serine/threonine-protein kinase 33 (Homo sapiens) (UniProt Q9BYT3). As to the kind of experiment: Selectivity interaction (KinomeScan (DiscoverX)) EUB0000607a STK33. The note with it: at 10 µM.
Test [4] concerns the target T1, MAP kinase-activated protein kinase 5 (Homo sapiens) (UniProt Q8IW41).
T1 sequence (whole entry): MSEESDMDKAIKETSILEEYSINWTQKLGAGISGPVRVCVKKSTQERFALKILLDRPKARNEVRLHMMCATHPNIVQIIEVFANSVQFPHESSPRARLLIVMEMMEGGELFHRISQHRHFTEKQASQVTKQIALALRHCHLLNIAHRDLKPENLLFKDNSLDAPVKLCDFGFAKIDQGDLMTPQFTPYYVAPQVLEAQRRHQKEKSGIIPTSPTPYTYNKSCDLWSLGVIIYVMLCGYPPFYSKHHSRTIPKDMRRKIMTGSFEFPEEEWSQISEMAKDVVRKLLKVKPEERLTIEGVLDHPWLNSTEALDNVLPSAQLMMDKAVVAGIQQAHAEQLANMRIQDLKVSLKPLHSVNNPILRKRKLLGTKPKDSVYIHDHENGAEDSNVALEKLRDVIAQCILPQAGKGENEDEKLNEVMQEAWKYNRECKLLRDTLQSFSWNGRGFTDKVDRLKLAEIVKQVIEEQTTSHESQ
The note with it: at 10 µM.

The target in test [5] is Ribosomal protein S6 kinase alpha-5 (Homo sapiens) (UniProt O75582). The note with it: at 10 µM.
The target of test [6] is Mitogen-activated protein kinase kinase kinase kinase 4 (Homo sapiens, UniProt O95819). Description: Selectivity interaction (Kinase panel (literature)) EUB0001199aCl MAP4K4. The settings on record: at 1 µM.
Sequence of Mitogen-activated protein kinase kinase kinase kinase 4 (O95819 2-1239 limits assumed): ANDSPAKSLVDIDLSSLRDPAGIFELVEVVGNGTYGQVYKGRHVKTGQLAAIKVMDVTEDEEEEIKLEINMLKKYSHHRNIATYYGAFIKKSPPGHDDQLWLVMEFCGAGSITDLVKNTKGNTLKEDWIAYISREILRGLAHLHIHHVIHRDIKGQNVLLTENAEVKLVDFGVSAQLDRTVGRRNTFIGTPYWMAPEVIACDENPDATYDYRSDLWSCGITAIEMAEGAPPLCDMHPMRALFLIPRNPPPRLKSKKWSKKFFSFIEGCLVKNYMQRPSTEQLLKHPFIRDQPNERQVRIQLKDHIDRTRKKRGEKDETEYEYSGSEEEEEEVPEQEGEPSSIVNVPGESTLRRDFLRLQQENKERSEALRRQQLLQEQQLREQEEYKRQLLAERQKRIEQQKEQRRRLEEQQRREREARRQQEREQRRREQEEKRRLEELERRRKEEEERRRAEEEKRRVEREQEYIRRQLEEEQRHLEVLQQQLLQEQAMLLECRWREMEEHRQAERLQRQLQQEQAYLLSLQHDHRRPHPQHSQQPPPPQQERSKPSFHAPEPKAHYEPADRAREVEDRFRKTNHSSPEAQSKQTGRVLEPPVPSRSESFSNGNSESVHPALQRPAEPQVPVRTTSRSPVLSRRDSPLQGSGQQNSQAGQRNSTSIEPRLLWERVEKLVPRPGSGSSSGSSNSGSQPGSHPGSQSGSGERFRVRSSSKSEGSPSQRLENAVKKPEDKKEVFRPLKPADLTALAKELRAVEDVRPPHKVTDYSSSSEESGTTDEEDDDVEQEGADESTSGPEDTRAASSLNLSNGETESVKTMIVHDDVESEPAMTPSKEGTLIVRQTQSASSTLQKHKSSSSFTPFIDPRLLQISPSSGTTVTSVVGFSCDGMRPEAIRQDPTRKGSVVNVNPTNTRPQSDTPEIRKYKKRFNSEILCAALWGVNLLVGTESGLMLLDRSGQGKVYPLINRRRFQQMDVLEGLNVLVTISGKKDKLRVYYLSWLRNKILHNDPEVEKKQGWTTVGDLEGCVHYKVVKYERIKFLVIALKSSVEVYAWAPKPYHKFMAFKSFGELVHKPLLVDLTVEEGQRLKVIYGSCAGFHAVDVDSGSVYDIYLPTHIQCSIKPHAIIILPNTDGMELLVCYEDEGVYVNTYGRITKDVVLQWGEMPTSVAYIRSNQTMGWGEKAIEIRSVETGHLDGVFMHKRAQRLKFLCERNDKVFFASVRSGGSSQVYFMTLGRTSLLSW
In test [7] the test system is T2, Discoidin domain-containing receptor 2 (Homo sapiens), Q16832 [N456S].
T2 sequence (whole entry): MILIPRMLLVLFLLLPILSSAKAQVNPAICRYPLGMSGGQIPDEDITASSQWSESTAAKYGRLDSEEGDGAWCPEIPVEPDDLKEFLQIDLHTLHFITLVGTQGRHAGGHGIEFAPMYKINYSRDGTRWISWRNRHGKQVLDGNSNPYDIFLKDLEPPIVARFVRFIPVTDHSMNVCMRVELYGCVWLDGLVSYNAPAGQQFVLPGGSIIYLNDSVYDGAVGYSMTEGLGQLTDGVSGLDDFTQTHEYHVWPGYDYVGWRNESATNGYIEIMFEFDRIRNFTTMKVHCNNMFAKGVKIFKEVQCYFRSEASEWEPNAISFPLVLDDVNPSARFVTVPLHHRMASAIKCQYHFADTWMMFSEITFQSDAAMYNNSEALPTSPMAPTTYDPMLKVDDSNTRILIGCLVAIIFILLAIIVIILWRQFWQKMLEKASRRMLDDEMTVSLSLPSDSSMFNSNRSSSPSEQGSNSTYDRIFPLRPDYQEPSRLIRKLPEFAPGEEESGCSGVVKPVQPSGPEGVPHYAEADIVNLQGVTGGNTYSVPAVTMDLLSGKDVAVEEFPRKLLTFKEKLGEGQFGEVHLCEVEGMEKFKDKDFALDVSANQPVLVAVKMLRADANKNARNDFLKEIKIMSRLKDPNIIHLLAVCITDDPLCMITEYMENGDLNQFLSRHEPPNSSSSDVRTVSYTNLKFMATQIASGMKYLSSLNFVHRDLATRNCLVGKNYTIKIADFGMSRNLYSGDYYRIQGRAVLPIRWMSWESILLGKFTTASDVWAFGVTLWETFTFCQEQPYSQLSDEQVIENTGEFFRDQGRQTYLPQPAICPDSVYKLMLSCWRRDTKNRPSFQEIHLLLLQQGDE
As to the kind of experiment: Selectivity interaction (ProQinase) EUB0000171b DDR2.

Test [8] concerns the target T3, Mitogen-activated protein kinase kinase kinase kinase 3 (Homo sapiens) (UniProt Q8IVH8).
T3 sequence (whole entry): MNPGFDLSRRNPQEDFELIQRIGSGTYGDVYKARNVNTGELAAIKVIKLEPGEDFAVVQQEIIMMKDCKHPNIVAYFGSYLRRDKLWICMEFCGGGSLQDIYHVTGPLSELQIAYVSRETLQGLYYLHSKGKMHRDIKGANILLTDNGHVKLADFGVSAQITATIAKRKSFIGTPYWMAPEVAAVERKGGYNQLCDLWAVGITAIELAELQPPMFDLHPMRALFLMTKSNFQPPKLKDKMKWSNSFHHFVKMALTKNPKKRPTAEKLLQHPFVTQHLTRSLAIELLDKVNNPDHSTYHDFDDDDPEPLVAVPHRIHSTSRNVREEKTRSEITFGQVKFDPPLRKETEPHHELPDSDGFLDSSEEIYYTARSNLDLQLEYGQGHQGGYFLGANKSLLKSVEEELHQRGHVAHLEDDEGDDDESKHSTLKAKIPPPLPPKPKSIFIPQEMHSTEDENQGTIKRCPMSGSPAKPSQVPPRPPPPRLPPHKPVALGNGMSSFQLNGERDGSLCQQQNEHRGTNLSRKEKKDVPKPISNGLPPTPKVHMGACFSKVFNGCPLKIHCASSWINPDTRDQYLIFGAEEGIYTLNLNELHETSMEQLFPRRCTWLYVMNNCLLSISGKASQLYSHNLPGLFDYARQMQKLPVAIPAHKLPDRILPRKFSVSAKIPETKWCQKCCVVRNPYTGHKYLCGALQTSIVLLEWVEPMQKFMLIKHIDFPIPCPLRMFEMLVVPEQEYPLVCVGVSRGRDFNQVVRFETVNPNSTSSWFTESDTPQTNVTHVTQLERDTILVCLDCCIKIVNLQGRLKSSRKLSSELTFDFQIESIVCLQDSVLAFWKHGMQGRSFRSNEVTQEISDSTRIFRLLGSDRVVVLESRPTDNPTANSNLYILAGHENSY
As to the kind of experiment: Selectivity interaction (KinomeScan (DiscoverX)) EUB0001049a MAP4K3. The note with it: at 1 µM.

Test [9] concerns the target Rho-associated protein kinase 2 (Homo sapiens, UniProt O75116). As to the kind of experiment: Selectivity interaction (KinomeScan (DiscoverX)) EUB0001049a ROCK2. The note with it: at 1 µM.
Test [10] deals with LIM domain kinase 1 (Homo sapiens) (UniProt P53667). As to the kind of experiment: Selectivity interaction (KinomeScan (DiscoverX)) EUB0001049a LIMK1. The note with it: at 1 µM.
Sequence of LIM domain kinase 1 (Homo sapiens) (P53667 whole entry, looked up, the tested form may be a part): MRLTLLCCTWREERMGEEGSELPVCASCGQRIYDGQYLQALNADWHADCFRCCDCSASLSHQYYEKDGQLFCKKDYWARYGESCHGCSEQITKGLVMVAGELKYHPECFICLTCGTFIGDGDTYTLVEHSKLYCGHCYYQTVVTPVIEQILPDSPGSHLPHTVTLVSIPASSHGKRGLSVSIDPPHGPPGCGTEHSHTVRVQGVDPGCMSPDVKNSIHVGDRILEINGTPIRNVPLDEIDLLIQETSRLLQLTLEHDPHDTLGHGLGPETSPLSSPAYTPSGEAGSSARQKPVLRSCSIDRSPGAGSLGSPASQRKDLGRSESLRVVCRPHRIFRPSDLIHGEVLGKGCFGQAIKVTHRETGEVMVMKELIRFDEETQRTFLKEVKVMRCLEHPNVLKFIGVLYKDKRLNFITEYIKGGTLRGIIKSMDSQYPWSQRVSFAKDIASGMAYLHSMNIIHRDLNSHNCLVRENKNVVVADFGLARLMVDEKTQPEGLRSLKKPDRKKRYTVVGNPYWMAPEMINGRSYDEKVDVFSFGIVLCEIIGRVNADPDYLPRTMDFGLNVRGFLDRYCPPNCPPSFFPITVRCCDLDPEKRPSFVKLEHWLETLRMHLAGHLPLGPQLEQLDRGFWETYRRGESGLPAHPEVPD
In test [11] the target is Cyclin-dependent kinase 18 (Homo sapiens) (UniProt Q07002). As to the kind of experiment: Selectivity interaction (KinomeScan (DiscoverX)) EUB0000092b CDK18. The settings on record: at 10 µM.
Sequence of Cyclin-dependent kinase 18 (Homo sapiens) (Q07002 whole entry): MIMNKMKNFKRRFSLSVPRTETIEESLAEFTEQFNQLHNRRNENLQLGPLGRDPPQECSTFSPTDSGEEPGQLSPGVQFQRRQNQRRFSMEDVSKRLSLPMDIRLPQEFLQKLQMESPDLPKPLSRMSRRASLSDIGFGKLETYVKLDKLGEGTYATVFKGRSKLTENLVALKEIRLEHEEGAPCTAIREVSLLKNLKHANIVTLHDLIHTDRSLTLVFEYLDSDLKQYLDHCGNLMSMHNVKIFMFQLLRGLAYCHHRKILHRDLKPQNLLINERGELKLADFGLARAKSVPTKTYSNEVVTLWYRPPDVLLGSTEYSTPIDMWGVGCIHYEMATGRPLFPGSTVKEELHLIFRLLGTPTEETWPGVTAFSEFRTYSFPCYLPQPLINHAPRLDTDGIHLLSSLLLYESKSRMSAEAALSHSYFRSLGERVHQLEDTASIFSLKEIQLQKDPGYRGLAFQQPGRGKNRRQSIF
Test [12] is described as follows: Selectivity interaction (KinomeScan (DiscoverX)) EUB0001079a CDK2H. The settings on record: at 1 µM.
Test [13] concerns the target Phosphatidylinositol 4-kinase beta (Homo sapiens, UniProt Q9UBF8). Description: Selectivity interaction (KinomeScan (DiscoverX)) EUB0000229b PI4KB. The note with it: at 10 µM.

Sequence of Rho-associated protein kinase 2 (O75116 whole entry, looked up, the tested form may be a part): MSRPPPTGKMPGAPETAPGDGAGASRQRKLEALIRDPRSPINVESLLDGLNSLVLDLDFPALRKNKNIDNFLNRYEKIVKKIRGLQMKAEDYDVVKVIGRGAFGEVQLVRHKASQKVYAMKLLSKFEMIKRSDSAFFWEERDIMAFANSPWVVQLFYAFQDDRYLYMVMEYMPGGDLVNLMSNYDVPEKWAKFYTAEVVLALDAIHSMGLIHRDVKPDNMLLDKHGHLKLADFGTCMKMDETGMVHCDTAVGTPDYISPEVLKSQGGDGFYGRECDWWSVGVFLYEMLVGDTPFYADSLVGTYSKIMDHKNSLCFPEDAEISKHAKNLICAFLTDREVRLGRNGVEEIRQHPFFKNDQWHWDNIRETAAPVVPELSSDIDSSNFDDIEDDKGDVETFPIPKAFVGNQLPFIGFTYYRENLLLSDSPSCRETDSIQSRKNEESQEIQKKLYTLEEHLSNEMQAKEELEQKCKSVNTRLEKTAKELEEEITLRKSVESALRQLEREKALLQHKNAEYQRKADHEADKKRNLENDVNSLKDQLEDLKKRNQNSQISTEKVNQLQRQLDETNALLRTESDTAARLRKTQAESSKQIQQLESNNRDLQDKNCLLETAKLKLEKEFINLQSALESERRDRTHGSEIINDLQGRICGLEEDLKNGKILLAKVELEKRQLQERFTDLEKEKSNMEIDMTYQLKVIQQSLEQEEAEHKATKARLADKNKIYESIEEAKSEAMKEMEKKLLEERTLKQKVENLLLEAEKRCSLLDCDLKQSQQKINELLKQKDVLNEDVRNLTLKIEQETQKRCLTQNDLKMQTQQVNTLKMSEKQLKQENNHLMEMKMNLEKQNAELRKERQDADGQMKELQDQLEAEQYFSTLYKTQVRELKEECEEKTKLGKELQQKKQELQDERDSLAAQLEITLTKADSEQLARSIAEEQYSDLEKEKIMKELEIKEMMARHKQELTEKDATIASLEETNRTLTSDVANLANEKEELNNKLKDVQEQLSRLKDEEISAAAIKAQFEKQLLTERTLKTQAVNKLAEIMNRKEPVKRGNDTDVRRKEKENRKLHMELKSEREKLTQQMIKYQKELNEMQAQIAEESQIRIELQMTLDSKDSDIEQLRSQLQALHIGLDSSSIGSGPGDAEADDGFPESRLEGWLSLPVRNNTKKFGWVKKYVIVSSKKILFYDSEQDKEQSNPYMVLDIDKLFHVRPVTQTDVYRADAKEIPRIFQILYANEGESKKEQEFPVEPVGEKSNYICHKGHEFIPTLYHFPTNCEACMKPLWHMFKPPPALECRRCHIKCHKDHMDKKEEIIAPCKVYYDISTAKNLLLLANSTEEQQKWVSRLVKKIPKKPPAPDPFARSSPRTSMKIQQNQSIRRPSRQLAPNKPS
Sequence of Cyclin-dependent kinase 7 (P50613 whole entry): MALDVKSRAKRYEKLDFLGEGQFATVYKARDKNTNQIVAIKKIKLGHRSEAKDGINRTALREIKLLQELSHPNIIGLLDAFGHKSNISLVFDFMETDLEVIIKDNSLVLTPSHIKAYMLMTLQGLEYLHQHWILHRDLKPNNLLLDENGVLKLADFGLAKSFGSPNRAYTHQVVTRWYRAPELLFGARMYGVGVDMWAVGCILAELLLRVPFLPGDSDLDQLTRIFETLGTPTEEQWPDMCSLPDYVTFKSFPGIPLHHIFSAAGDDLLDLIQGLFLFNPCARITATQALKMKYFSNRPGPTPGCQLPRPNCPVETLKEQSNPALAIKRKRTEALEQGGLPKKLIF
Sequence of Tyrosine-protein kinase Fer (Homo sapiens) (P16591 whole entry, looked up): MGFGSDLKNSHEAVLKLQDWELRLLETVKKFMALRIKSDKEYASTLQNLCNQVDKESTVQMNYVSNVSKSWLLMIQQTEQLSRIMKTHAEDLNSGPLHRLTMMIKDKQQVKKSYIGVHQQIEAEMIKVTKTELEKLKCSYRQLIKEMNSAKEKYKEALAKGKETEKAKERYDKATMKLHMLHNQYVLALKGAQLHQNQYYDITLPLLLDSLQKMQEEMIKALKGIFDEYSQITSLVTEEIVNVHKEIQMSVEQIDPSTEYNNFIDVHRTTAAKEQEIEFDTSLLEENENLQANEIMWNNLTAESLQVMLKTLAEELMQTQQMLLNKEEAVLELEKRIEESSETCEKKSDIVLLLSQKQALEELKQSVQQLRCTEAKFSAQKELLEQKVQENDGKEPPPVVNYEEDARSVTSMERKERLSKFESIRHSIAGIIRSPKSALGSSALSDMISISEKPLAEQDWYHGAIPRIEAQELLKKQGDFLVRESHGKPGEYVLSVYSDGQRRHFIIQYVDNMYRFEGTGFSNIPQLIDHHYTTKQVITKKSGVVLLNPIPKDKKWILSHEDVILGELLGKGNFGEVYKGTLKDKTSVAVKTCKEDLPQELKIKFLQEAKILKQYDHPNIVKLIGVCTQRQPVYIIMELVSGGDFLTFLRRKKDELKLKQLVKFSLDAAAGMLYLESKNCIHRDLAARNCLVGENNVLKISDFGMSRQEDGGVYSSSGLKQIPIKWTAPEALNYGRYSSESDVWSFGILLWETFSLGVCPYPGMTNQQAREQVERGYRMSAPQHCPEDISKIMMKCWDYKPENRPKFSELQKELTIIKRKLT

Turning to `CCN(CC)CCCCNc1ncc2cc(-c3cc(OC)cc(OC)c3)c(NC(=O)NC(C)(C)C)nc2n1`, in test [1], the % of control came to 100%.

Consider `O=C(NOC[C@H](O)CO)c1ccc(F)c(F)c1Nc1ccc(I)cc1F`, for which, in [2], the % of control came out at 100%.

For the compound `CNC(=O)Nc1ccc(-c2nc(N3CC4CCC(C3)O4)c3cnn(C4CCC5(CC4)OCCO5)c3n2)cc1`, the % of control in [3] is 82%.

Regarding `Cc1cc([C@@H](C)Nc2ccccc2C(=O)O)c2nc(N3CCOCC3)cc(=O)n2c1` [AZD-6482], the % of control worked out at 100% in test [4] and 91% in [5].

Consider `CN1Cc2nccc(-c3cn(C)nc3-c3ccc(F)cc3)c2C1=O`, for which, in [6], the % of inhibition came out at 65%.

For the compound `C=CC(=O)Nc1cccc(C(=O)Nc2ccc(Nc3cc(-c4[nH]c(SC)nc4C)ccn3)cc2)c1`, the % of control was found to be 88% in [7] (at 1 µM) and 67% in test [7] (at 5 µM).

`COc1cc(Nc2nc(C)cc(-c3cnn4nc(OC)ccc34)n2)cc(C(F)(F)F)c1`: the % of control in [8] was found to be 100%; in test [9], 100%; in test [10], 75%.

`CCC(=O)N1CCN(c2ccc(-n3c(=O)ccc4cnc5ccc(-c6cnc7ccccc7c6)cc5c43)cc2C(F)(F)F)CC1` gave a % of control in [11] of 97%.

For `Nc1cnc(N2CCc3cc(S(=O)(=O)Nc4c(F)cc(Cl)cc4F)cc(N4CCCC4=O)c32)nc1` [TP-020n], the % of control in test [12] amounted to 100%.

In turn, `COc1cc(N(C)c2ccnc3ccc(C(F)(F)F)cc23)cc(OC)c1OC` displayed a % binding in [13] of 90%.

These data come from ChEMBL document CHEMBL5465560, “Selectivity Literature for EUbOPEN Chemogenomic Library” (2024).
